From patent publication US11865114B2, “Method for treating diseases using SMARCA2/4 degraders” (Aurigene Discovery Technologies Limited, priority 2019, dated 2024)

Experiments:
Assay type in all cases: cell-based
[1] = tested on: LNCaP-FGC (ATCC CRL-1740) cells; assay: Anti-proliferative activity by Cell Titer Glo assay in LNCaP-FGC cells
Experimental: (§1) Determination of Anti-Proliferative Activity of SMARCA2/4 Degrader in Cells by Cell Titer Glo® (Promega) Assay
(§2) The prostate cancer cell lines, Vcap (ATCC #CRL-2876), LNCaP-FGC (ATCC CRL-1740), 22RV1 (ATCC CRL-2505), PC-3 (ATCC CRL-1435), DU-145 (ATCC HTB-81) and RWPE-1 (ATCC CRL-11609) were seeded in 96 well plate flat black clear bottom plates (Corning, Cat. No 3904) using respective complete media. Simultaneously cells were seeded for day 0 measurement.
(§3) On the following day, compound 43 of the present invention was added to cells from 10 mM stocks made in DMSO (Sigma Cat no. D2650). DMSO alone was used a vehicle control. Day 0 plate was terminated on day of compound addition using 50 μl of Cell Titer Glo® reagent (Promega, Cat. no G7572). Compound was incubated for 8 days, except for 22RV1 which was incubated for 6 days. Media was replenished with fresh compound on day 4. After the compound incubation, assay was terminated using 50 μl of CellTiter Glo® reagent. CellTiter Glo® Luminescent reagent determines the number of viable cells based on quantitation of ATP present which is an indicator of cell number and metabolic activity. Luminescence readings were taken in fluorescent plate reader.
(§4) Day 0 CTG measurement is designated as time zero (Tz), final CTG measurement in Vehicle control is designated as control growth DMSO (C) and test growth in the presence of drug at the nine concentration levels is designated as (Ti).
(§5) Using the measurements [time zero (Tz), growth control DMSO (C) and test growth in the presence of drug at the nine concentration levels (Ti)] the percentage growth is calculated at each of the drug concentration levels. Percentage response is calculated as: [(Ti−Tz)/(C−Tz)]×100 for Concentrations for which Ti≥Tz [(Ti−Tz)/Tz]×100 for Concentrations for which Ti<Tz
(§6) Three dose response parameters are calculated for each experimental agent. Growth inhibition of 50% (GI50) is calculated from [(Ti−Tz)/(C−Tz)]×100=50, which is the drug concentration resulting in a 50% reduction in the net luminescence increase (measured ATP) in control cells during the drug incubation.
(§7) The LC50 (concentration of drug resulting in a 50% reduction in the measured ATP at the end of the drug treatment as compared to that at the beginning) indicating a net loss of cells following treatment is calculated from [(Ti−Tz)/Tz]×100=−50.
(§8) Compound 43 of the present invention was analyzed against several cell lines representing normal and prostate cancer cells. The cell lines used in the present invention are harboring one or more tumor specific alterations such as presence of AR, PTEN mutations or TMPRSS2-ERG fusion which are presented below.

[2] = tested on: PC-3 (ATCC CRL-1435) cells; assay: Anti-proliferative activity by Cell Titer Glo assay in PC3 cells
Experimental: as §1, §2, §3, §4, §5, §6, §7, §8

[3] = tested on: RWPE-1 (ATCC CRL-11609) cells; assay: Anti-proliferative activity by Cell Titer Glo assay in RWPE normal cells
Experimental: as §1, §2, §3, §4, §5
(§9) Three dose response parameters are calculated for each experimental agent. […]
(§10) Compound 43 of the present invention was analyzed against several cell lines representing normal and prostate cancer cells. […]

[4] = tested on: Vcap (ATCC #CRL-2876) cells; assay: Anti-proliferative activity by Cell Titer Glo assay in VCap cells
Experimental: as §1, §2, §3, §4, §5, §6, §7, §8

[5] = tested on: 22RV1 (ATCC CRL-2505) cells; assay: Anti-proliferative activity by Cell Titer Glo assay in 22RV1 cells
Experimental: as §1, §2, §3, §4, §5, §9, §10

[6] = tested on: DU-145 (ATCC HTB-81) cells; assay: Anti-proliferative activity by Cell Titer Glo assay in DU145 cells
Experimental: as §1, §2, §3, §4, §5, §9, §10

Structure (SMILES): Cc1ncsc1-c1ccc([C@H](C)NC(=O)[C@@H]2C[C@@H](O)CN2C(=O)[C@@H](NC(=O)CN2CCN(c3cc(-c4ccccc4O)nnc3N)CC2)C(C)(C)C)cc1 [Compound 43]
- GI50 ([1]; 192 h, LnCapFGC cells, AR dependence +, PTEN mutation +, 8 days incubation): 5 nM
- CC50 ([1]; LnCapFGC cells, 50% reduction in measured ATP versus day 0, 8 days incubation, read-out: LC50 (the source's name)): 22 nM
- Observed cell killing ([1]; LnCapFGC cells, 8 days incubation): Yes
- Inhibition of cell growth and cell killing (in words) ([1]; LnCapFGC, two tumor specific alterations, FIG. 4B): both growth and cell killing were potently impacted
- GI50 ([2]; Homo sapiens, PC-3, 192 h, PC3 cells, PTEN mutation +, 8 days incubation): 51 nM
- CC50 ([2]; Homo sapiens, PC-3, PC3 cells, 50% reduction in measured ATP versus day 0, 8 days incubation, read-out: LC50 (the source's name)): 3410 nM
- Inhibition of cell growth and cell killing (in words) ([2]; PC3, one tumor-specific alteration, FIG. 3B): potently inhibited with no or moderate cell killing
- Observed cell killing ([2]; PC3 cells, 8 days incubation): Yes
- GI50 ([3]; Homo sapiens, RWPE-1, 192 h, RWPE (Normal) cells, normal AR, no PTEN mutation, no TMPRSS2-ERG fusion, 8 days incubation): 260 nM
- Observed cell killing ([3]; RWPE (Normal) cells, 8 days incubation): No
- Inhibition of cell growth and cell killing (in words) ([3]; normal cell (RWPE), FIG. 1): did not show any inhibition and cell killing
- GI50 ([4]; Homo sapiens, 192 h, VCap cells, AR dependence +, TMPRSS2-ERG fusion +, 8 days incubation): 3 nM
- CC50 ([4]; Homo sapiens, VCap cells, 50% reduction in measured ATP versus day 0, 8 days incubation, read-out: LC50 (the source's name)): 11 nM
- Observed cell killing ([4]; VCap cells, 8 days incubation): Yes
- Inhibition of cell growth and cell killing (in words) ([4]; VCap, two tumor specific alterations, FIG. 4A): both growth and cell killing were potently impacted
- Inhibition of cell growth and cell killing (in words) ([5]; 22RV1, one tumor-specific alteration, FIG. 3A): potently inhibited with no or moderate cell killing
- Observed cell killing ([5]; 22RV1 cells, 6 days incubation): No
- GI50 ([5]; Homo sapiens, 144 h, 22RV1 cells, AR dependence +, 6 days incubation): 14 nM
- Inhibition of cell growth and cell killing (in words) ([6]; DU145, none of the tumor specific alterations, FIG. 2): neither inhibition of cell growth nor cell killing was observed
- Observed cell killing ([6]; DU145 cells, 8 days incubation): No
- GI50 ([6]; Homo sapiens, DU-145, 192 h, DU145 cells, none of the tumor-specific alterations, 8 days incubation): > 10000 nM
